Entries after “also recorded” stand apart in the source; their conditions may differ.
Legend:
peritoneal macrophages = assay: TLR agonist-induced cytokine production (ELISA) in peritoneal macrophages pretreated with Rac1 inhibitor; format: cell-based, mouse
Experimental: Immunoblot analysis of NF-κB and mitogen-activated protein kinase (MAPK) signaling molecules was performed with WT and Plxna4^−/− peritoneal macrophages left untreated (0) or treated for 15, 30 or 60 min with 1 μg/ml ultrapure LPS (FIG. 3A). FIG. 3B and FIG. 3C show chromatin immunoprecipitation (ChIP) assays of the binding of p65 or c-Jun at the promoter regions of Tnfa and Il6 gene in WT and Plxna4^−/− peritoneal macrophages left untreated or treated with 10 μg/ml poly(I:C), 1 μg/ml ultrapure LPS (B), 5 μg/ml Pam3Cys or 4 μg/ml CpG (C) for 1 h. Cells were left untreated (0) or treated for 15 or 30 min with 1 μg/ml ultrapure LPS. Rac1, Cdc42 and RhoA pull-down analysis were performed as described in the Examples section. Total Rac1, Cdc42 and RhoA in cell lysate were used as controls. […] Protein levels of TNF-α and IL-6 were measured by ELISA. The results shown are representative of three independent experiments and are expressed as mean±s.d. * P<0.05 compared to WT peritoneal macrophages without NSC23766 pretreatment.
Total peritoneal cells were harvested from the peritoneal cavities of naïve WT or Plxna4^−/− mice with two 10 ml cold sterile PBS wash. […] The remaining cells were thoroughly washed with PBS and counted in a hemocytometer. Cytospins were prepared and stained with Diff-Quik solutions, and the number of peritoneal macrophages was determined. […]
(§1) Cytokines generated by in vitro cultured peritoneal macrophages were quantified using the ELISA Set for mouse TNF-α or IL-6 (BD Biosciences) and mouse IFN-β ELISA Kit (PBL InterferonSource). For the in vivo experiments, concentrations of TNF-α, IL-1β, IL-6, IL-12p70, CCL2 and CCL3 were measured in cell-free peritoneal lavage fluid, serum, and lung homogenate using a Customized Mouse Cytokine 6-plex Panel (BioLegend) and a Luminex Bio-Plex 200 system (Bio-Rad Laboratories). […]

WT and Plxna4−/− mice [1] = assay: Inflammatory cytokines in peritoneal lavage after CLP (ELISA); format: in vivo; conditions: 25 μg/kg 1 h prior to CLP, 4 h after CLP, versus IgG Fc-treated controls
Experimental: (§2) WT and Plxna4^−/− peritoneal macrophages were stimulated with LPS (1 μg/ml) for 4 h in the absence or presence of either Sema3A-Fc or Sema6A-Fc fusion proteins (20 or 100 μg/ml) (FIG. 7A and FIG. 7B). Messenger RNA (FIG. 7A) or protein (FIG. 7B) levels of TNF-α and IL-6 were measured by RT-PCR and ELISA, respectively. The IgG Fc fragment (100 μg/ml) was used as a negative control. WT and Plxna4^−/− mice (n=7˜9 per group) were pretreated with either Sema3A-Fc or IgG Fc control proteins at a dosage of 25 μg per kg body weight 1 h prior to CLP procedure (FIG. 7C). Survival rate was monitored for 5 days. τP<0.05 compared with WT mice pretreated with Sema3A-Fc. […] Inflammatory cytokines in peritoneal lavage collected 4 h after CLP were determined by ELISA. * P<0.05 compared to peritoneal lavage from WT mice pretreated with Sema3A-Fc (FIG. 7E). […] Inflammatory cytokines in peritoneal lavage collected 4 h after CLP were determined by ELISA. *P<0.05 compared with peritoneal lavage from WT mice pretreated with Sema3A-Fc (FIG. 7G).
Cytokines generated by in vitro cultured peritoneal macrophages were quantified using the ELISA Set for mouse TNF-α or IL-6 (BD Biosciences) and mouse IFN-β ELISA Kit (PBL InterferonSource). […]
CLP surgery was performed on mice as previously described with minor modifications (Wen et al., 2008). […] For survival studies, mice subjected to surgery were monitored for 5 days. […]

[2] = test system: WT or Plxna4−/− peritoneal macrophages; assay: TNF-α and IL-6 production (RT-PCR, ELISA) in peritoneal macrophages stimulated with Sema3A-Fc or Sema6A-Fc in the absence or presence of LPS; format: cell-based, mouse
Experimental: Messenger RNA (FIG. 7A) or protein (FIG. 7B) levels of TNF-α and IL-6 were measured by RT-PCR and ELISA, respectively. The IgG Fc fragment (100 μg/ml) was used as a negative control. WT and Plxna4^−/− mice (n=7˜9 per group) were pretreated with either Sema3A-Fc or IgG Fc control proteins at a dosage of 25 μg per kg body weight 1 h prior to CLP procedure (FIG. 7C). Survival rate was monitored for 5 days. τP<0.05 compared with WT mice pretreated with Sema3A-Fc. WT mice (n=4 per group) were pretreated with either Sema3A-Fc or IgG Fc control proteins, followed by CLP surgery (FIG. 7D). Inflammatory cytokines in peritoneal lavage collected 4 h after CLP were determined by ELISA. * P<0.05 compared to peritoneal lavage from WT mice pretreated with Sema3A-Fc (FIG. 7E). […] WT and Plxna4^−/− mice (n=4 per group experiment) were pretreated with either Sema3A-Fc or IgG Fc control proteins at a dosage of 25 ug/kg body weight 1 hour before CLP procedure. Inflammatory cytokines in peritoneal lavage collected 4 h after CLP were determined by ELISA. *P<0.05 compared with peritoneal lavage from WT mice pretreated with Sema3A-Fc (FIG. 7G).
Total peritoneal cells were harvested from the peritoneal cavities of naïve WT or Plxna4^−/− mice with two 10 ml cold sterile PBS wash. Lavage was pooled for mice in the same group. RBCs were lysed in ammonium chloride buffer (150 mM NH4CL, 10 mM NaHCO3, 1 mM EDTA-tetrasodium). The remaining cells were thoroughly washed with PBS and counted in a hemocytometer. Cytospins were prepared and stained with Diff-Quik solutions, and the number of peritoneal macrophages was determined. […]
as §1

Rac1 = target: T1, Rac1 (Mus musculus, UniProt P63001); assay: Detection of GTP-bound Rac1 (pull-down) in macrophages; format: cell-based
T1 construct: endogenous in cells; host or cells: primary mouse peritoneal macrophages (WT, Plxna4-/-)
Experimental: The assays for GTP-bound Rac1, Cdc42 and RhoA were performed as described (Noren et al., 2000). Briefly, peritoneal macrophages were stimulated with 1 μg/ml LPS for various time periods. Cells were lysed and GTP-bound Rac1 and Cdc42 were affinity precipitated using Rac1/Cdc42-binding domain of PAK (PBD) fused with GST. GTP-bound RhoA was affinity precipitated using RhoA-binding domain of rhotekin (RBD) fused with GST. Bound proteins were resolved on a NuPAGE® (SDS PAGE) gel and were transferred onto nitrocellulose membranes. Membranes were immunoblotted with the appropriate primary antibodies against Rac1, Cdc42 or RhoA.
To assess a converging point for TLR and plexin-A4, we assayed for GTP-bound Rac1.

WT and Plxna4−/− mice [3] = assay: Survival after experimental sepsis induced by CLP; format: in vivo; conditions: 25 μg/kg 1 h prior to CLP
Experimental: as §2
CLP surgery was performed on mice as previously described with minor modifications (Wen et al., 2008). […] For survival studies, mice subjected to surgery were monitored for 5 days. […] Colonies were counted and expressed as CFU/ml. […]
We next assessed if Sema3A engagement of plexin-A4 could synergistically exacerbate CLP-induced septic inflammation. […]

Row | Compound | cytokine production (peritoneal macrophages; TLR-activated Plxna4−/− macrophages, NSC23766 pretreatment) | IFN-β production (peritoneal macrophages; WT macrophages, Rac1 inhibition) | TNF-α and IL-6 production (peritoneal macrophages; WT peritoneal macrophages, NSC23766 200 μM pretreatment 1 h, various TLR agonists 4 h, ELISA) | levels of inflammatory cytokines in peritoneal lavage (WT and Plxna4−/− mice [1]) | LPS-induced TNF-α and IL-6 production (enhancement in LPS-responsiveness) ([2]; Plxna4−/− macrophages) | LPS-induced TNF-α and IL-6 production ([2]; WT peritoneal macrophages, suboptimal LPS, fusion proteins 20 or 100 μg/ml) | TNF-α and IL-6 production ([2]; semaphorin alone, absence of LPS, macrophages) | Rac1 activation (GTP-bound Rac1) (Rac1; Myd88−/− macrophages) | Rac1 activation (GTP-bound Rac1) (Rac1; Plxna4−/− macrophages) | Rac1 activation (GTP-bound Rac1) (Rac1; WT macrophages, LPS and Sema3A together) | Rac1 activation (GTP-bound Rac1) (Rac1; WT macrophages, single stimulus) | survival rate (WT and Plxna4−/− mice [3])
1 | CCN(CC)CCCC(C)Nc1nc(C)cc(Nc2ccc3nc(C)cc(N)c3c2)n1 (stereo not drawn) [NSC23766] | no inhibitory effect | not affected | significantly attenuate |  |  |  |  |  |  |  |  | 
2 | Sema3A: Recombinant human Sema3A-Fc (1250-S3, R&D); chimeric protein of human IgG1 Fc fragment fused to Sema3A; plexin-A4 ligand |  |  |  | significantly higher levels | completely abolished | enhanced | Neither Sema3A nor Sema6A alone induced; also recorded: failed to induce cytokine production | neither Sema3A nor LPS activated; also recorded: attenuated | not observed | enhanced this activation | resulted in Rac1 activation | did not affect

— patent US8871205B2, “Methods and compositions for the treatment of immune disorders” (The University of North Carolina at Chapel Hill, priority 2009, dated 2014)
